# How the values were obtained:
# Assay type in all cases: in vivo
# Details in all cases: evaluated after 13 days
# [1] = tested on: Setaria faberi (SETFA); experiment: Pre-emergence Test, Setaria faberi (SETFA)
# [2] = tested on: Echinochloa crus-galli (ECHCG); experiment: Pre-emergence Test, Echinochloa crus-galli (ECHCG)
# [3] = tested on: Zea mays (ZEAMX); experiment: Pre-emergence Test, Zea mays (ZEAMX)
# [4] = tested on: Ipomoea hederacea (IPOHE); experiment: Pre-emergence Test, Ipomoea hederacea (IPOHE)
# [5] = tested on: Amaranthus palmeri (AMAPA); experiment: Pre-emergence Test, Amaranthus palmeri (AMAPA)
# [6] = tested on: Amaranthus retoflexus (AMARE); experiment: Pre-emergence Test, Amaranthus retoflexus (AMARE)
# [7] = tested on: Setaria faberi (SETFA); experiment: Post-emergence Test, Setaria faberi (SETFA); design: key to percentage damage caused to the plant, SETFA (five-point scale): 5=81-100%, 4=61-80%, 3=41-60%, 2=21-40%, 1=0-20% damage
# In short: (§1)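 Percent plant damage was rated 13 days post-application on a 1–5 scale (1=0-20%, 5=81-100%). Application used an aqueous acetone (50:50)/0.5% Tween 20 spray, normally 1000 g/ha, with controlled glasshouse conditions (24/16 °C, 14 h light, 65% humidity).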
# [8] = tested on: Echinochloa crus-galli (ECHCG); experiment: Post-emergence Test, Echinochloa crus-galli (ECHCG); design: key to percentage damage caused to the plant, ECHCG (five-point scale): 5=81-100%, 4=61-80%, 3=41-60%, 2=21-40%, 1=0-20% damage
# In short: as §1
# [9] = tested on: Zea mays (ZEAMX); experiment: Post-emergence Test, Zea mays (ZEAMX); design: key to percentage damage caused to the plant, ZEAMX (five-point scale): 5=81-100%, 4=61-80%, 3=41-60%, 2=21-40%, 1=0-20% damage
# In short: as §1
# [10] = tested on: Ipomoea hederacea (IPOHE); experiment: Post-emergence Test, Ipomoea hederacea (IPOHE); design: key to percentage damage caused to the plant, IPOHE (five-point scale): 5=81-100%, 4=61-80%, 3=41-60%, 2=21-40%, 1=0-20% damage
# In short: as §1
# [11] = tested on: Amaranthus palmeri (AMAPA); experiment: Post-emergence Test, Amaranthus palmeri (AMAPA); design: key: 5=81-100%, 4=61-80%, 3=41-60%, 2=21-40%, 1=0-20% damage
# In short: as §1
# [12] = tested on: Amaranthus retoflexus (AMARE); experiment: Post-emergence Test, Amaranthus retoflexus (AMARE); design: key to percentage damage caused to the plant, AMARE (five-point scale): 5=81-100%, 4=61-80%, 3=41-60%, 2=21-40%, 1=0-20% damage
# In short: as §1
SMILES,"Pre-emergence Test SETFA, percentage damage caused to the plant (five-point scale) ([1]; 1000 g/ha)","Pre-emergence Test ECHCG, percentage damage caused to the plant (five-point scale) ([2]; 1000 g/ha)","Pre-emergence Test ZEAMX, percentage damage caused to the plant (five-point scale) ([3]; 1000 g/ha)","Pre-emergence Test IPOHE, percentage damage caused to the plant (five-point scale) ([4]; 1000 g/ha)","Pre-emergence Test AMAPA, percentage damage caused to the plant (five-point scale) ([5]; 1000 g/ha)","Pre-emergence Test AMARE, percentage damage caused to the plant (five-point scale) ([6]; 1000 g/ha)","percentage damage caused to the plant, SETFA (five-point scale) ([7]; 250 g/Ha)","percentage damage caused to the plant, SETFA (five-point scale) ([7]; 1000 g/ha)","percentage damage caused to the plant, ECHCG (five-point scale) ([8]; 250 g/Ha)","percentage damage caused to the plant, ECHCG (five-point scale) ([8]; 1000 g/ha)","percentage damage caused to the plant, ZEAMX (five-point scale) ([9]; 250 g/Ha)","percentage damage caused to the plant, ZEAMX (five-point scale) ([9]; 1000 g/ha)","percentage damage caused to the plant, IPOHE (five-point scale) ([10]; 250 g/Ha)","percentage damage caused to the plant, IPOHE (five-point scale) ([10]; 1000 g/ha)","percentage damage caused to the plant, AMAPA (five-point scale) ([11]; 250 g/Ha)","percentage damage caused to the plant, AMAPA (five-point scale) ([11]; 1000 g/ha)","percentage damage caused to the plant, AMARE (five-point scale) ([12]; 250 g/Ha)","percentage damage caused to the plant, AMARE (five-point scale) ([12]; 1000 g/ha)",other results
"Cn1c(Cn2ccc(C(F)(F)F)n2)cc(=O)c(C(=O)O)c1-c1ccc(Cl)c(Cl)c1 [Compound 33, 2-(3,4-dichlorophenyl)-1-methyl-4-oxo-6-[[3-(trifluoromethyl)pyrazol-1-yl]methyl]pyridine-3-carboxylic acid]",5 (5=81-100%),5 (5=81-100%),0,0,3 (3=41-60%),0,3 (3=41-60%),4 (4=61-80%),3 (3=41-60%),4 (4=61-80%),1 (1=0-20%),2 (2=21-40%),4 (4=61-80%),3 (3=41-60%),1 (1=0-20%),2 (2=21-40%),1 (1=0-20%),3 (3=41-60%),–
"CCn1c(Cn2ccc(Cl)n2)cc(=O)c(C(=O)O)c1-c1ccc(F)c(Cl)c1 [Compound 28, 2-(3-chloro-4-fluoro-phenyl)-6-[(3-chloropyrazol-1-yl)methyl]-1-ethyl-4-oxo-pyridine-3-carboxylic acid]",5 (5=81-100%),5 (5=81-100%),0,1 (1=0-20%),0,0,4 (4=61-80%),4 (4=61-80%),3 (3=41-60%),4 (4=61-80%),0,4 (4=61-80%),4 (4=61-80%),1 (1=0-20%),1 (1=0-20%),2 (2=21-40%),1 (1=0-20%),0,–
"CCn1c(Cn2cc(C(F)(F)F)cn2)cc(=O)c(C(=O)O)c1-c1ccc(Cl)c(Cl)c1 [Compound 6, 2-(3,4-dichlorophenyl)-1-ethyl-4-oxo-6-[[4-(trifluoromethyl)pyrazol-1-yl]methyl]pyridine-3-carboxylic acid]",4 (4=61-80%),3 (3=41-60%),0,2 (2=21-40%),–,0,0,4 (4=61-80%),3 (3=41-60%),4 (4=61-80%),0,4 (4=61-80%),1 (1=0-20%),1 (1=0-20%),0,2 (2=21-40%),1 (1=0-20%),0,"Pre-emergence Test SETFA, percentage damage caused to the plant (five-point scale) ([1]; 250 g/Ha (*)): 2 (2=21-40%); Pre-emergence Test ECHCG, percentage damage caused to the plant (five-point scale) ([2]; 250 g/Ha (*)): 3 (3=41-60%); Pre-emergence Test ZEAMX, percentage damage caused to the plant (five-point scale) ([3]; 250 g/Ha (*)): 0; Pre-emergence Test IPOHE, percentage damage caused to the plant (five-point scale) ([4]; 250 g/Ha (*)): 1 (1=0-20%); Pre-emergence Test AMAPA, percentage damage caused to the plant (five-point scale) ([5]; 250 g/Ha (*)): 1 (1=0-20%); Pre-emergence Test AMARE, percentage damage caused to the plant (five-point scale) ([6]; 250 g/Ha (*)): 0"
"CCOC(=O)c1nn(Cc2cc(=O)c(C(=O)O)c(-c3ccc(Cl)c(Cl)c3)n2CC)cc1C [Compound 123, 2-(3,4-dichlorophenyl)-6-[(3-ethoxycarbonyl-4-methyl-pyrazol-1-yl)methyl]-1-ethyl-4-oxo-pyridine-3-carboxylic acid]",1 (1=0-20%),0,0,0,1 (1=0-20%),0,0,1 (1=0-20%),2 (2=21-40%),1 (1=0-20%),0,1 (1=0-20%),0,2 (2=21-40%),0,–,0,1 (1=0-20%),–
"CCOCc1ccn(Cc2cc(=O)c(C(=O)O)c(-c3ccc(Cl)c(Cl)c3)n2CC)n1 [Compound 173, 2-(3,4-dichlorophenyl)-6-[[3-(ethoxymethyl)pyrazol-1-yl]methyl]-1-ethyl-4-oxo-pyridine-3-carboxylic acid]",4 (4=61-80%),4 (4=61-80%),0,3 (3=41-60%),0,0,1 (1=0-20%),4 (4=61-80%),2 (2=21-40%),4 (4=61-80%),0,1 (1=0-20%),1 (1=0-20%),2 (2=21-40%),0,1 (1=0-20%),0,1 (1=0-20%),–
"CCn1c(Cn2nc(C)cc2Cl)cc(=O)c(C(=O)O)c1-c1ccc(Cl)c(Cl)c1 [Compound 17, 6-[(5-chloro-3-methyl-pyrazol-1-yl)methyl]-2-(3,4-dichlorophenyl)-1-ethyl-4-oxo-pyridine-3-carboxylic acid]",4 (4=61-80%),4 (4=61-80%),2 (2=21-40%),3 (3=41-60%),5 (5=81-100%),2 (2=21-40%),3 (3=41-60%),4 (4=61-80%),4 (4=61-80%),4 (4=61-80%),2 (2=21-40%),3 (3=41-60%),3 (3=41-60%),5 (5=81-100%),5 (5=81-100%),5 (5=81-100%),5 (5=81-100%),3 (3=41-60%),–

# Reference: patent publication US20250098679A1, “HERBICIDAL PYRIDONE DERIVATIVES” (SYNGENTA CROP PROTECTION AG, priority 2021, published 2025)
